# Measurements from PubChem BioAssay AID1745844 (Carcinogenic Potency Database (CPDB), 2022).
# Active and inactive are the calls of the source. No rule for the calls is given here.
# System: rodent lifetime carcinogenesis bioassay, tumor incidence TD50
# Experiment: chronic cancer bioassays in animals – CPDB, compiled studies (AID 1745844)
structure (smiles),measurement,setting,value
O=C1C2CC=CCC2C(=O)N1SC(Cl)(Cl)Cl (stereo not given),carcinogen call,"mouse, strain B6AKF1, females, oral dosing, site: any site (literature study), lesion: several types, types named in the paper, dosed 76 weeks, study length 76 weeks",negative (inactive)
same,carcinogen call,"mouse, strain B6AKF1, females, oral dosing, site: liver, lesion: hepatoma, dosed 76 weeks, study length 76 weeks",negative (inactive)
same,carcinogen call,"mouse, strain B6AKF1, females, oral dosing, site: lung, lesion: adenoma, dosed 76 weeks, study length 76 weeks",negative (inactive)
same,TD50,"mouse, strain B6AKF1, males, oral dosing, site: any site (literature study), lesion: several types, types named in the paper, dosed 76 weeks, study length 76 weeks",161 mg/kg/day (inactive)
same,TD50,"mouse, strain B6AKF1, males, oral dosing, site: liver, lesion: hepatoma, dosed 76 weeks, study length 76 weeks",195 mg/kg/day (inactive)
same,TD50,"mouse, strain B6AKF1, males, oral dosing, site: lung, lesion: adenoma, dosed 76 weeks, study length 76 weeks",3620 mg/kg/day (inactive)
same,carcinogen call,"mouse, strain B6C3F1, females, in feed, site: any site (literature study), lesion: several types, types named in the paper, dosed 80 weeks, study length 91 weeks",negative (inactive)
same,TD50,"mouse, strain B6C3F1, females, in feed, site: duodenum, lesion: adenocarcinoma in adenomatous polyp, dosed 80 weeks, study length 90 weeks",21600 mg/kg/day
same,TD50,"mouse, strain B6C3F1, females, oral dosing, site: any site (literature study), lesion: several types, types named in the paper, dosed 76 weeks, study length 76 weeks",244 mg/kg/day (inactive)
same,carcinogen call,"mouse, strain B6C3F1, females, oral dosing, site: liver, lesion: hepatoma, dosed 76 weeks, study length 76 weeks",negative (inactive)
same,carcinogen call,"mouse, strain B6C3F1, females, oral dosing, site: lung, lesion: several types, types named in the paper, dosed 76 weeks, study length 76 weeks",negative (inactive)
same,carcinogen call,"mouse, strain B6C3F1, males, in feed, site: any site (literature study), lesion: several types, types named in the paper, dosed 80 weeks, study length 91 weeks",negative (inactive)
same,TD50,"mouse, strain B6C3F1, males, in feed, site: duodenum, lesion: adenocarcinoma in adenomatous polyp, dosed 80 weeks, study length 90 weeks",15100 mg/kg/day
same,TD50,"mouse, strain B6C3F1, males, in feed, site: duodenum, lesion: adenomatous polyp, NOS or adenocarcinoma in adenomatous polyp, dosed 80 weeks, study length 90 weeks",7390 mg/kg/day
same,TD50,"mouse, strain B6C3F1, males, oral dosing, site: any site (literature study), lesion: several types, types named in the paper, dosed 76 weeks, study length 76 weeks",42.5 mg/kg/day (inactive)
same,TD50,"mouse, strain B6C3F1, males, oral dosing, site: liver, lesion: hepatoma, dosed 76 weeks, study length 76 weeks",86.1 mg/kg/day (inactive)
same,TD50,"mouse, strain B6C3F1, males, oral dosing, site: lung, lesion: adenoma, dosed 76 weeks, study length 76 weeks",187 mg/kg/day (inactive)
same,TD50,"mouse, strain Charles River CD1, females, in feed, site: small intestine, lesion: adenoma, dosed 113 weeks, study length 113 weeks",13300 mg/kg/day
same,TD50,"mouse, strain Charles River CD1, females, in feed, site: small intestine, lesion: carcinoma, dosed 113 weeks, study length 113 weeks",2110 mg/kg/day
same,TD50,"mouse, strain Charles River CD1, females, in feed, site: small intestine, lesion: several types, types named in the paper, dosed 113 weeks, study length 113 weeks",1740 mg/kg/day
same,TD50,"mouse, strain Charles River CD1, males, in feed, site: small intestine, lesion: adenoma, dosed 113 weeks, study length 113 weeks",8280 mg/kg/day
same,TD50,"mouse, strain Charles River CD1, males, in feed, site: small intestine, lesion: carcinoma, dosed 113 weeks, study length 113 weeks",3500 mg/kg/day
same,TD50,"mouse, strain Charles River CD1, males, in feed, site: small intestine, lesion: several types, types named in the paper, dosed 113 weeks, study length 113 weeks",2690 mg/kg/day
same,TD50,"rat, strain Charles River CD (Sprague-Dawley), females, in feed, site: kidney, lesion: several types, types named in the paper, dosed 104 weeks, study length 104 weeks",17900 mg/kg/day
same,TD50,"rat, strain Charles River CD (Sprague-Dawley), females, in feed, site: kidney, lesion: tubule carcinoma, dosed 104 weeks, study length 104 weeks",17900 mg/kg/day
same,TD50,"rat, strain Charles River CD (Sprague-Dawley), males, in feed, site: kidney, lesion: several types, types named in the paper, dosed 104 weeks, study length 104 weeks",2690 mg/kg/day
same,TD50,"rat, strain Charles River CD (Sprague-Dawley), males, in feed, site: kidney, lesion: tubule adenoma, dosed 104 weeks, study length 104 weeks",3810 mg/kg/day
same,TD50,"rat, strain Charles River CD (Sprague-Dawley), males, in feed, site: kidney, lesion: tubule carcinoma, dosed 104 weeks, study length 104 weeks",11500 mg/kg/day
same,TD50,"rat, strain Osborne-Mendel, females, in feed, site: adrenal gland, lesion: cortical adenoma + cortical carcinoma, dosed 80 weeks, study length 109 weeks",253 mg/kg/day (inactive)
same,carcinogen call,"rat, strain Osborne-Mendel, females, in feed, site: any site (literature study), lesion: several types, types named in the paper, dosed 80 weeks, study length 113 weeks",negative (inactive)
same,TD50,"rat, strain Osborne-Mendel, males, in feed, site: any site (literature study), lesion: several types, types named in the paper, dosed 80 weeks, study length 113 weeks",4780 mg/kg/day (inactive)
same,TD50,"rat, strain Wistar, females, in feed, site: uterus, lesion: sarcoma, dosed 130 weeks, study length 130 weeks",1700 mg/kg/day
C=CC1CC=CCC1 (stereo not given),TD50,"mouse, strain B6C3F1, females, by gavage, site: adrenal capsule, lesion: adenoma, NOS, dosed 103 weeks, study length 104 weeks",1050 mg/kg/day
same,TD50,"mouse, strain B6C3F1, females, by gavage, site: any site (literature study), lesion: several types, types named in the paper, dosed 103 weeks, study length 104 weeks",149 mg/kg/day
same,TD50,"mouse, strain B6C3F1, females, by gavage, site: liver, lesion: hepatocellular adenoma + hepatocellular carcinoma + neoplastic nodule, dosed 103 weeks, study length 104 weeks",1480 mg/kg/day
same,TD50,"mouse, strain B6C3F1, females, by gavage, site: lung, lesion: alveolar/bronchiolar adenoma + alveolar/bronchiolar carcinoma, dosed 103 weeks, study length 104 weeks",19000 mg/kg/day
same,TD50,"mouse, strain B6C3F1, females, by gavage, site: mesenteric lymph node + multiple organs + small intestine, lesion: malignant lymphoma, lymphocytic type, dosed 103 weeks, study length 104 weeks",839 mg/kg/day
same,TD50,"mouse, strain B6C3F1, females, by gavage, site: ovary, lesion: granulosa-cell carcinoma + granulosa-cell tumor + mixed tumor, benign, dosed 103 weeks, study length 104 weeks",94.4 mg/kg/day
same,TD50,"mouse, strain B6C3F1, females, by gavage, site: ovary, lesion: granulosa-cell carcinoma + granulosa-cell tumor, dosed 103 weeks, study length 104 weeks",309 mg/kg/day
same,TD50,"mouse, strain B6C3F1, females, by gavage, site: ovary, lesion: granulosa-cell tumor, dosed 103 weeks, study length 104 weeks",361 mg/kg/day
same,TD50,"mouse, strain B6C3F1, females, by gavage, site: ovary, lesion: mixed tumor, benign, dosed 103 weeks, study length 104 weeks",106 mg/kg/day
same,TD50,"mouse, strain B6C3F1, males, by gavage, site: any site (literature study), lesion: several types, types named in the paper, dosed 103 weeks, study length 104 weeks",307 mg/kg/day
same,TD50,"mouse, strain B6C3F1, males, by gavage, site: liver, lesion: hepatocellular adenoma + hepatocellular carcinoma + neoplastic nodule, dosed 103 weeks, study length 104 weeks",1270 mg/kg/day
same,TD50,"mouse, strain B6C3F1, males, by gavage, site: lung, lesion: alveolar/bronchiolar adenoma + alveolar/bronchiolar carcinoma, dosed 103 weeks, study length 104 weeks",490 mg/kg/day
same,TD50,"mouse, strain B6C3F1, males, by gavage, site: lung, lesion: alveolar/bronchiolar adenoma, dosed 103 weeks, study length 104 weeks",926 mg/kg/day
same,TD50,"mouse, strain B6C3F1, males, by gavage, site: mesenteric lymph node + multiple organs + spleen, lesion: malignant lymphoma, histiocytic type + malignant lymphoma, mixed type + malignant lymphoma, lymphocytic type, dosed 103 weeks, study length 104 weeks",623 mg/kg/day
same,TD50,"rat, strain Fischer 344, females, by gavage, site: any site (literature study), lesion: several types, types named in the paper, dosed 103 weeks, study length 104 weeks",305 mg/kg/day
same,TD50,"rat, strain Fischer 344, females, by gavage, site: clitoral gland, lesion: adenoma, NOS + squamous-cell carcinoma, dosed 103 weeks, study length 104 weeks",580 mg/kg/day
same,TD50,"rat, strain Fischer 344, females, by gavage, site: liver, lesion: hepatocellular adenoma + hepatocellular carcinoma + neoplastic nodule, dosed 103 weeks, study length 104 weeks",3.85e+06 mg/kg/day
same,TD50,"rat, strain Fischer 344, males, by gavage, site: adrenal gland, lesion: pheochromocytoma + pheochromocytoma, malignant, dosed 103 weeks, study length 104 weeks",159 mg/kg/day
same,TD50,"rat, strain Fischer 344, males, by gavage, site: any site (literature study), lesion: several types, types named in the paper, dosed 103 weeks, study length 104 weeks",119 mg/kg/day
same,TD50,"rat, strain Fischer 344, males, by gavage, site: liver, lesion: hepatocellular adenoma + hepatocellular carcinoma + neoplastic nodule, dosed 103 weeks, study length 104 weeks",132000 mg/kg/day
same,TD50,"rat, strain Fischer 344, males, by gavage, site: skin, lesion: squamous-cell carcinoma + squamous-cell papilloma, dosed 103 weeks, study length 104 weeks",769 mg/kg/day
same,TD50,"rat, strain Fischer 344, males, by gavage, site: skin, lesion: squamous-cell papilloma, dosed 103 weeks, study length 104 weeks",935 mg/kg/day
same,TD50,"rat, strain Fischer 344, males, by gavage, site: testis, lesion: interstitial-cell tumor, dosed 103 weeks, study length 104 weeks",62.3 mg/kg/day
